Among the data in patent publication US20250288589A1, “PYRIDOPYRIMIDINES AND METHODS OF THEIR USE” (Kineta, Inc., priority 2021, published 2025) are IC50 values, retold here.

pIC50: −log10 of the molar value.

The target of this assay is T1, full-length human PIKFYVE (Homo sapiens, UniProt Q9Y2I7, L932S/Q1183K/Q995L/S1033A/S696N/T998S).
T1 construct: A full-length human PIKFYVE [1-2098(end) amino acids and S696N, L932S, Q995L, T998S, S1033A and Q1183K; purchased Carna Biosciences; host or cells: baculovirus expression system
T1 sequence (Q9Y2I7 whole entry S696N/L932S/Q995L/T998S/S1033A/Q1183K): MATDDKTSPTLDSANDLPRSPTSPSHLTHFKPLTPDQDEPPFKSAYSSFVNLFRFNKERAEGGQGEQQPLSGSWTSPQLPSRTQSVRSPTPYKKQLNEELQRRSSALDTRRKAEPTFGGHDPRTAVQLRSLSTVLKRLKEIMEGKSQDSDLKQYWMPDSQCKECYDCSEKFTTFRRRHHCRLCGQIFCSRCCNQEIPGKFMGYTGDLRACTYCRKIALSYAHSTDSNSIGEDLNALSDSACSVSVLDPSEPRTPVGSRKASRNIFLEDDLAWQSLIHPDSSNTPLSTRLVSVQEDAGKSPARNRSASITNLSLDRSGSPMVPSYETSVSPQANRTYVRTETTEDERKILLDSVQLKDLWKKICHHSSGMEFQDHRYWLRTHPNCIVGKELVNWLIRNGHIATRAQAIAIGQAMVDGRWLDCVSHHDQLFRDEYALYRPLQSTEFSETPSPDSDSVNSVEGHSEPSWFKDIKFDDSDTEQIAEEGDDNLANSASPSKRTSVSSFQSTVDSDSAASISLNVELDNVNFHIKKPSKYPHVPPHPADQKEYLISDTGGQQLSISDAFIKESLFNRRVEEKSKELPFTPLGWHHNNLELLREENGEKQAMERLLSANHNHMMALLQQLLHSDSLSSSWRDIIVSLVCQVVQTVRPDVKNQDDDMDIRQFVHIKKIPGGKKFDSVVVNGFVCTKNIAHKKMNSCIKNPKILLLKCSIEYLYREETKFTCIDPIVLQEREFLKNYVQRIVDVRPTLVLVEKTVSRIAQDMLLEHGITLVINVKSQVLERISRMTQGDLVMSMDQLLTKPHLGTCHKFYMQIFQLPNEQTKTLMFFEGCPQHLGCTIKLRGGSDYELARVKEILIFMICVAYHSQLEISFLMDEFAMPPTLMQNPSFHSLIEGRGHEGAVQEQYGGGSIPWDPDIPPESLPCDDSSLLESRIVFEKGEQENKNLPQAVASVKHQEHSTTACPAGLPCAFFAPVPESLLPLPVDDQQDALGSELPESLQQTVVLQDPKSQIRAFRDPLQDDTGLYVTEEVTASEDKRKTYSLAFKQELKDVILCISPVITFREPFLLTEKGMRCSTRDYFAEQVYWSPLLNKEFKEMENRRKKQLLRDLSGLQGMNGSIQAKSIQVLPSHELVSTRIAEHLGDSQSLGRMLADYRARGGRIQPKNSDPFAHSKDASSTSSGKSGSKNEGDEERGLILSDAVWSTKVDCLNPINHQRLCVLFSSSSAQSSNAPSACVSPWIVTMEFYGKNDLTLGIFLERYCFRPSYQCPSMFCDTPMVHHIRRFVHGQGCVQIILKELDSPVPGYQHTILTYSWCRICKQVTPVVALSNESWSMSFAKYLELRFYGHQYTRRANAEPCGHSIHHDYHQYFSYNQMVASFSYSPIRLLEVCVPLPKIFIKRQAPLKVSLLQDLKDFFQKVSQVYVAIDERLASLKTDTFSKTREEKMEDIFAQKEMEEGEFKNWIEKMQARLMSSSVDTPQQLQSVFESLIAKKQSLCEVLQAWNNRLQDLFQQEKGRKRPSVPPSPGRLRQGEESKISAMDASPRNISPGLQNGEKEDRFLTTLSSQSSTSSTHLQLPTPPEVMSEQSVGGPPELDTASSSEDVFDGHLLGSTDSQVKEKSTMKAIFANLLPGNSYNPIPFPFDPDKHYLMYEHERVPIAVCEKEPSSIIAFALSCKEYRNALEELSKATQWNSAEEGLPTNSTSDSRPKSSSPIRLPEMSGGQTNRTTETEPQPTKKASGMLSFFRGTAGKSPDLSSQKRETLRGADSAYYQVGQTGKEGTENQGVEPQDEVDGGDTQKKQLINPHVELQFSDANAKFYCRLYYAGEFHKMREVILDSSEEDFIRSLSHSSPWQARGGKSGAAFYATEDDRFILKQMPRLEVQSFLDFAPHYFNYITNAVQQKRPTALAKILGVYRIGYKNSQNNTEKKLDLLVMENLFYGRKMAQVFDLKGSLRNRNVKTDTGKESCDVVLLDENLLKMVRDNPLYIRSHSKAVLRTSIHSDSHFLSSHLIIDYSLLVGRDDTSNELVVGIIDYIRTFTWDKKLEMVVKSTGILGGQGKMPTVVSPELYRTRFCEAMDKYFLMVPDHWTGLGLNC
In words: PIKfyve biochemical assay (ADP-Glo Kinase assay, Carna Biosciences). As to conditions: GST-PIKFYVE, 10 μM to 3 nM in duplicate, read-out: hPIKfyve IC50.
Description: (§1) PIKfyve Biochemical Assay. The biochemical PIKFyve inhibition assays were run by Carna Biosciences according to proprietary methodology based on the Promega ADP-Glo™ Kinase assay. A full-length human PIKFYVE [1-2098(end) amino acids and S696N, L932S, Q995L, T998S, S1033A and Q1183K of the protein having the sequence set forth in NCBI Reference Sequence No. NP_055855.2] was expressed as N-terminal GST-fusion protein (265 kDa) using baculovirus expression system. GST-PIKFYVE was purified by using glutathione sepharose chromatography and used in an ADP-Glo™ Kinase assay (Promega). Reactions were set up by adding the test compound solution, substrate solution, ATP solution and kinase solution, each at 4× final concentrations. Reactions were prepared with assay buffer (50 mM MOPS, 1 mM DTT, pH7.2), mixed, and incubated in black 384 well polystyrene plates for 1 hour at room temperature. ADP-Glo™ reagent was then added for 40 minutes, followed by kinase detection reagent for an additional 40 minutes. The kinase activity was evaluated by detecting relative light units on a luminescence plate reader. Samples were run in duplicate from 10 μM to 3 nM. […] IC50 values were calculated from concentration vs % inhibition curves by fitting to a four-parameter logistic curve.
as §1, with “The” for “PIKfyve Biochemical Assay. The”, “accession number” for “the protein having the sequence set forth in NCBI Reference Sequence No.”, “uM” for “μM”
Background: In ADP-Glo the light output rises with the ADP produced.
On to `Cc1cccc(-c2cc(O)n(-c3nc(N4CCOCC4)c4ncc(-c5ccoc5)cc4n3)n2)c1` [Compound 70, 1-(7-(furan-3-yl)-4-morpholinopyrido[3,2-d]pyrimidin-2-yl)-3-m-tolyl-1H-pyrazol-5-ol], for which the negative logarithm of the IC50 (pIC50) (in general, the IC50 on a negative log10 scale, so that one unit is a factor of ten) is over 8.00.
The figure for `Oc1ccc(-c2ccccc2)nc1-c1nc(N2CCOCC2)c2ncccc2n1` [Compound 108, 2-(4-morpholinopyrido[3,2-d]pyrimidin-2-yl)-6-phenylpyridin-3-ol] is 7.00 to 8.00.
The figure for `c1ccc(-c2nccc(-c3nc(N4CCOCC4)c4ncc(-c5ccncc5)cc4n3)n2)cc1` [Compound 104, 4-(2-(2-phenylpyrimidin-4-yl)-7-(pyridin-4-yl)pyrido[3,2-d]pyrimidin-4-yl)morpholine] is over 8.00; for `c1ccc(-c2ccn(-c3nc(N4CCOCC4)c4ncc(N5CCOCC5)cc4n3)n2)cc1` [Compound 41, 4-[4-morpholino-2-(3-phenylpyrazol-1-yl)pyrido[3,2-d]pyrimidin-7-yl]morpholine] it is 7.00 to 8.00.
The value for `Cc1cccc(-c2ncc(O)c(-c3nc(N4CCOCC4)c4ncccc4n3)n2)c1` [Compound 103, 4-(4-morpholinopyrido[3,2-d]pyrimidin-2-yl)-2-m-tolylpyrimidin-5-ol] was 7.00 to 8.00; that for `Cc1ccc2c(c1)nnn2-c1nc(N2CCOCC2)c2ncccc2n1` [Compound 76, 4-(2-(5-methyl-1H-benzo[d][1,2,3]triazol-1-yl)pyrido[3,2-d]pyrimidin-4-yl)morpholine] was 6.00 to 7.00.
Consider `c1cc(-c2nc(N3CCOCC3)c3ncccc3n2)nc(C2CCNCC2)c1` [Compound 92, 4-[2-[6-(4-piperidyl)-2-pyridyl]pyrido[3,2-d]pyrimidin-4-yl]morpholine], for which the pIC50 is 5.00 to 6.00.
The figure for `c1ccc(-c2ccn(-c3nc(N4CCOCC4)c4ncc(C5CCNCC5)cc4n3)n2)cc1` [Compound 36, 4-(2-(3-phenyl-1H-pyrazol-1-yl)-7-(piperidin-4-yl)pyrido[3,2-d]pyrimidin-4-yl)morpholine] is 7.00 to 8.00.
The figure for `c1cnc2c(N3CCOCC3)nc(-n3ccc(-c4ccncc4)n3)nc2c1` [Compound 14, 4-(2-(3-(pyridin-4-yl)-1H-pyrazol-1-yl)pyrido[3,2-d]pyrimidin-4-yl)morpholine] is 5.00 to 6.00; for `CN1CCC(c2cnc3c(N4CCOCC4)nc(-n4ccc(-c5ccccc5)n4)nc3c2)CC1` [Compound 37, 4-(7-(1-methylpiperidin-4-yl)-2-(3-phenyl-1H-pyrazol-1-yl)pyrido[3,2-d]pyrimidin-4-yl)morpholine] it is 7.00 to 8.00.
In the case of `Cc1cccc(/C=N/Oc2nc(N3CCOCC3)c3ncccc3n2)c1` [Compound 116, (E)-3-methylbenzaldehyde O-(4-morpholinopyrido[3,2-d]pyrimidin-2-yl) oxime], the pIC50 was 7.00 to 8.00.
The figure for `CN1CCC(c2nccc(-c3nc(N4CCOCC4)c4ncccc4n3)n2)CC1` [Compound 85, 4-[2-[2-(1-methyl-4-piperidyl)pyrimidin-4-yl]pyrido[3,2-d]pyrimidin-4-yl]morpholine] is under 5.00; for `c1ccc(-c2cnn(-c3nc(N4CCOCC4)c4ncc(C5CCOCC5)cc4n3)c2)cc1` [Compound 10, 4-[2-(4-phenylpyrazol-1-yl)-7-tetrahydropyran-4-yl-pyrido[3,2-d]pyrimidin-4-yl]morpholine] it is over 8.00; for `c1cncc(-c2ccn(-c3nc(N4CCOCC4)c4ncccc4n3)n2)c1` [Compound 13, 4-(2-(3-(pyridin-3-yl)-1H-pyrazol-1-yl)pyrido[3,2-d]pyrimidin-4-yl)morpholine] it is 5.00 to 6.00.
Consider `COc1cccc(-c2cnn(-c3nc(N4CCOCC4)c4ncc(C(=O)O)cc4n3)c2)c1` [Compound 44, 2-(4-(3-methoxyphenyl)-1H-pyrazol-1-yl)-4-morpholinopyrido[3,2-d]pyrimidine-7-carboxylic acid], for which the pIC50 was 7.00 to 8.00.
